Source: PubChem BioAssay AID2305 (GlaxoSmithKline (GSK), 2010)

These molecules were tested on P. falciparum 3D7 growth, pLDH absorbance (assay: P. falciparum 3D7 growth inhibition, dose response, strain 3D7 (AID 2305)).
`CC1CN=C(c2ccc(NC(=O)Nc3ccc(C4=NCC(C)N4)cc3)cc2)N1` (stereo not given) gave an IC50 of 0.38 µM. In the case of `CCOC(=O)c1ccc(NC(=O)Nc2cccc(-c3ccc(-c4nc5ccc(F)cc5[nH]4)cc3)c2)cc1`, the IC50 is reported as 0.09 µM. `N#Cc1ccc(CNCCCCCCCNCc2ccc(-c3ccccc3)cc2)cc1` gave an IC50 of 0.97 µM. Molecule `COc1ccc2ncc(F)c(NC(=O)C3CCC(NCc4cc5cc(F)cc(F)c5[nH]4)CC3)c2n1` (stereo not given) has an IC50 of 1.09 µM. `NS(=O)(=O)c1cccc(Nc2nccc(-c3cnn4ncccc34)n2)c1` gave an IC50 of 0.66 µM. `NCc1cccc(-c2ccc3ccnc(N)c3c2)c1` showed an IC50 of 0.17 µM. `CC1=C(C(=O)OCCOCc2ccccc2)C(c2ccccc2C(F)(F)F)C(C(=O)OCCOCc2ccccc2)=C(C)N1` was tested, and the IC50 was 0.53 µM. With `COCCC[C@H]1C(=O)O[C@H]2CCC[C@@H]21` the IC50 was 0.7 µM. `COc1cc(Cc2cnc(N)nc2N)cc(OCCCCCCN2C(=O)c3ccccc3C2=O)c1OC` showed an IC50 of 1.1 µM. `Cc1c(CCc2cccc(F)c2F)[nH]c2ccccc2c1=O` was tested, and the IC50 was 0.82 µM. With `COc1ccc2nc(-c3cc(-c4ccc(NC(=O)C(C)C)cc4)cnc3N)[nH]c2c1` the IC50 was 0.56 µM. For `C/C=C1\CN2CC[C@H]1C[C@@H]2[C@@H](O)c1ccnc2ccc(O)cc12`, the IC50 was 0.25 µM. Work on `CN(C)CCCOC(=O)c1cc2cc(-c3ccccc3)ccc2n1S(=O)(=O)Cc1ccccc1` yielded an IC50 of 0.36 µM. `Cn1c(=N)n(CC(=O)N2CCc3ccc(Cl)cc3C2Cc2ccc(Cl)c(Cl)c2)c2ccccc21` (stereo not given) showed an IC50 of 0.87 µM. Work on `CC(C)CNCc1cccc(-c2cccc(CNc3ccc4ncccc4c3)c2)c1` yielded an IC50 of 0.95 µM. With `Cc1ccc2c(c1)c(-c1ccccc1)c(-c1ccccc1)n2CC(O)CN1CCN(CC=Cc2ccccc2)CC1` (stereo not given) the IC50 was 0.78 µM. `COc1ccc(-c2cccc(NC(=O)c3ccc(C#N)cc3)c2)cc1CN(C)CCN(C)C` gave an IC50 of 0.07 µM. For `CCCC(C)NC(=O)[C@H]1CNCCN1C(=O)CCCc1ccccc1` (stereo not given in full), the IC50 was 0.19 µM. Work on `O=[N+]([O-])c1cccc(CNC2CCN(Cc3ccc4ccccc4c3)CC2)c1` yielded an IC50 of 0.76 µM. In the case of `COc1cc2nc(N3CCC(CNCc4ccc(-c5ccc(C(F)(F)F)cc5)cc4)CC3)nc(N)c2cc1OC`, the IC50 is reported as 0.09 µM. With `Cc1sc2nc(CSc3ccccc3)nc(N3CCN(CC(=O)N4CCCC4)CC3)c2c1C` the IC50 was 1.26 µM. `COC(=O)c1cc(NC(=O)Nc2ccc(Cn3ncc(N4CCCNCC4)c(Cl)c3=O)cc2)cc(C(=O)OC)c1` showed an IC50 of 0.71 µM. `COc1ccc(-c2nc(NC(=O)CSc3ccc([N+](=O)[O-])cc3)sc2C)cc1` gave an IC50 of 0.14 µM. `COCc1cc(C)nc2sc(C(=O)Nc3cc(C(C)(C)C)ccc3O)c(N)c12` gave an IC50 of 0.71 µM. Molecule `CN(c1ccc(NC(=O)Nc2cccc(Cl)c2)cc1)c1ccnc(N)n1` has an IC50 of 0.63 µM. `CCc1c(CCNCCCCCCNCCc2ccc3c(c2C)OCO3)ccc2c1OCO2` showed an IC50 of 0.61 µM. `CN(C)CCCNCCS(=O)(=O)c1cccc(Nc2ccc(-c3cccc(N(C)C)c3)cn2)c1` was tested, and the IC50 was 0.86 µM. `COc1ccc(CCNc2nc(NCc3ccccc3)c3cc(OC)c(OC)cc3n2)cc1OC` was tested, and the IC50 was 0.33 µM. In the case of `COc1ccc2nccc([C@@H](O)CN3CCC(NCc4cc5ccc(C#N)cc5[nH]4)CC3)c2c1`, the IC50 is reported as 0.1 µM. `CCCCCCCN(Cc1ccc(OC(C)(C)C(=O)OCC)cc1)C(=O)Nc1ccccc1OCC` was tested, and the IC50 was 1.03 µM. `Fc1ccc2nc(-c3ccc(-c4ccc(CNCCc5ccncc5)cc4)s3)[nH]c2c1` gave an IC50 of 0.14 µM. `Clc1ccc(OCCC2CCN(CCCCCCN3CCCCC3)CC2)cc1Cl` gave an IC50 of 1.14 µM. `Cc1c(F)cc(C(=O)NC2CC2)cc1-c1ccc2c(cnn2S(=O)(=O)c2ccc(Cl)s2)c1` was tested, and the IC50 was 0.39 µM. In the case of `N#CN1CC[C@@H](OC(=O)N[C@@H]2C[C@H]2c2ccccc2)C1`, the IC50 is reported as 1.34 µM. For `COc1ccc2nc(C)cc(Nc3ccc(Cl)c(Cl)c3)c2c1`, the IC50 was 0.44 µM. Molecule `CCC[C@@H](C(=O)NCCc1cccc(OC)c1)N1C(=O)c2c(ccc(OC)c2OC)C1C(=O)Nc1c(C)cccc1C` (stereo not given in full) has an IC50 of 0.81 µM. `CC1(C)CCCN(c2ncc(-c3cccc(CNCc4ccccc4O)c3)cn2)C1` was tested, and the IC50 was 0.89 µM. Molecule `NC1=NC(c2ccccc2)(c2ccccc2)C(=O)N1CC=Cc1ccccc1` has an IC50 of 0.6 µM. With `CC(C)CCCC(C)NC[C@@H](O)[C@H](Cc1ccccc1)NC(=O)c1cc(N2CCCC2=O)cc(N(c2ccccc2)S(C)(=O)=O)c1` (stereo not given in full) the IC50 was 0.06 µM. For `Fc1ccc2c(NN=Cc3ccccc3F)ccnc2c1`, the IC50 was 0.56 µM. Work on `CN1CCC(C(=O)N(Cc2ccc(-c3ccc(CNCCc4ccccc4)cn3)cc2)C2CCN(Cc3ccccc3)CC2)CC1` yielded an IC50 of 0.79 µM. `CN(C)CCOc1ccc2[nH]c(-c3cccc(OCc4ccccc4)c3)nc2c1C#N` was tested, and the IC50 was 0.26 µM. `Cc1ccc(F)c(OCC2CCN(c3ccc(C(=O)NC4CC4)cn3)CC2)c1` gave an IC50 of 0.73 µM. `CC(C)CNc1c2c(nc3cnn(-c4c5c(nc6cn[nH]c46)CCCC5)c13)CCCC2` gave an IC50 of 0.79 µM. With `NC1=NC(c2ccccc2)(c2ccccc2)C(=O)N1Cc1ccccc1Br` the IC50 was 0.86 µM. For `Cc1ccc(N2CCN(CCCCNC(=O)c3ccc(NC(=O)c4ccc(Cl)cc4)cc3)CC2)c(C)c1`, the IC50 was 0.76 µM. Work on `CCC(C)c1ccc(NC(=O)Nc2ccc(Cn3ncc(N4CCCNCC4)c(Cl)c3=O)cc2)cc1` (stereo not given) yielded an IC50 of 1.03 µM. In the case of `O=C(Nc1cccc(C(F)(F)F)c1)N1CCOC(CCN2CCC(c3ccccc3)CC2)(c2ccc(Cl)c(Cl)c2)C1` (stereo not given), the IC50 is reported as 1.11 µM. `O=C(NC1CCC(CN2CCC(c3c[nH]c4ccccc34)CC2)CC1)c1cc2cccc([N+](=O)[O-])c2[nH]1` (stereo not given) was tested, and the IC50 was 0.34 µM. With `O=C(/C=C/c1ccc(Cl)c(Cl)c1)NCCCCCN1CCC(NC(=O)Nc2ccc(C(F)(F)F)cc2)C1` (stereo not given) the IC50 was 0.51 µM. With `Cc1cccc2[nH]c(-c3ccc(-c4ccc(NC(=O)C(C)CN5CCN(C)CC5)cc4)s3)nc12` (stereo not given) the IC50 was 0.73 µM. Work on `Cc1cc(C)c(C(=O)Nc2ccc3nc(C)cc(N)c3c2)c(C)c1` yielded an IC50 of 1.09 µM. `Cc1ccn2cc(-c3ccc(NC(=O)c4ccc(Br)o4)cc3)nc2c1` was tested, and the IC50 was 0.74 µM. With `COc1ccc(-c2ccc(NC(=O)c3ccc(Cl)cc3)cc2)cc1CN1CCN(C)CC1` the IC50 was 0.82 µM. In the case of `Fc1cccc(COc2ccc(Nc3ncnc4sc(C#CC5CCCCN5)cc34)cc2Cl)c1` (stereo not given), the IC50 is reported as 0.54 µM. With `c1cc(CN2CCCCC2)cc(-c2cccc(-c3nc4ccccc4[nH]3)c2)c1` the IC50 was 0.83 µM. Work on `O=C(Nc1cccc(-c2csc(-c3nc4ccccc4[nH]3)c2)c1)c1cccnc1` yielded an IC50 of 0.23 µM. Molecule `CCN(CCCN1CCCCC1)c1cc(C)nc(Nc2ccc(C(F)(F)F)cc2)n1` has an IC50 of 0.37 µM. `COc1ccc2nc(C)cc(N/N=C/C=C/c3ccccc3)c2c1` gave an IC50 of 0.7 µM. Molecule `COc1cccc(C(=O)NCc2cccs2)c1Oc1ccccc1` has an IC50 of 0.06 µM. Work on `Nc1nc(N)c2cc(S(=O)(=O)c3ccc4ccccc4c3)ccc2n1` yielded an IC50 of 0.04 µM. `COc1cc(C(=O)NC2CC(C)(C)N(C)C(C)(C)C2)ccc1-c1nc2cc(Cl)c(Cl)cc2[nH]1` gave an IC50 of 0.79 µM. Work on `COc1ccc(CNCc2ccc(F)cc2)cc1-c1ccc(S(=O)(=O)NCCN2CCCC2)cc1` yielded an IC50 of 1.04 µM. Work on `Cc1cc(CN2CCC(N3CC(c4ccccc4)(c4ccccc4)OC3=O)C2)ccc1O` (stereo not given) yielded an IC50 of 0.78 µM. `COc1ccc2nccc(NN=Cc3cccnc3)c2c1` gave an IC50 of 0.5 µM. In the case of `Cc1cc(NCC2CCN(CC3CCCCC3)C2)nc(Nc2ccc(Cl)cc2)n1` (stereo not given), the IC50 is reported as 0.74 µM. In the case of `N#CC1(CCCNCCc2ccc(O)cc2)CCCc2c(O)cccc21` (stereo not given), the IC50 is reported as 0.76 µM. With `Cc1cccc2[nH]c(-c3ccc(-c4cccc(NC(=O)Nc5ccsc5)c4)s3)nc12` the IC50 was 0.54 µM. With `COc1ccc(Nc2nc(NN=Cc3cc(Cl)ccc3O)nc(Nc3ccccc3)n2)cc1` the IC50 was 0.65 µM. Work on `C=CCOc1ccccc1CNCC(O)c1cccc(C(F)(F)F)c1` (stereo not given) yielded an IC50 of 0.84 µM. In the case of `CCCc1cnc2nc(N)nc(N)c2c1C`, the IC50 is reported as 1.12 µM. `N#Cc1ccc(-c2ccc(C(=O)NC3CCN(CCN4CCC(c5cn(CCO)c6ccccc56)CC4)CC3)cc2)cc1` showed an IC50 of 0.76 µM. In the case of `O=C(Nc1ccc(C(F)(F)F)cc1)c1cccc(S(=O)(=O)NC2CCN(Cc3ccccc3)C2)c1` (stereo not given), the IC50 is reported as 1.05 µM. For `CCN(CC)CCCSc1ccc(-c2ccc(SCCCN(CC)CC)cc2)cc1`, the IC50 was 1.16 µM. In the case of `COC(=O)c1cc(C(O)CNC(C)CCCc2ccccc2)ccc1O` (stereo not given), the IC50 is reported as 0.74 µM. Work on `OC1(C(F)(F)F)CC(c2ccccc2)=NN1c1nncc(-c2ccccc2)n1` (stereo not given) yielded an IC50 of 0.73 µM. `Cc1cc(=O)c(-c2ccc(S(=O)(=O)c3ccc(Cl)cc3)cc2)c(C)[nH]1` was tested, and the IC50 was 0.88 µM. Work on `CC(C)(C)c1ccc(-c2ccccc2CNC(=O)c2cccc(O)c2)cc1` yielded an IC50 of 0.27 µM. `COc1cc(NC(=O)Nc2ccc([N+](=O)[O-])cc2OC)c(OC)cc1Cl` gave an IC50 of 1.47 µM. With `CCCCCCn1c(Sc2ccc(C#N)c([N+](=O)[O-])c2)nnc1-c1ccc(N(C)C)cc1` the IC50 was 1.07 µM. For `N=C(N)c1ccc(C=Cc2ccc(C(=N)N)cc2O)cc1`, the IC50 was 0.1 µM. Work on `CN1CCCN(Cc2ccc(-c3cccc(NC(=O)c4ccc(F)cc4)c3)cc2)CC1` yielded an IC50 of 1.09 µM. With `CN1CCCC(CN2CCN(Cc3cccc(-c4cccc(-c5nc6ccccc6[nH]5)c4)c3)CC2)C1` (stereo not given) the IC50 was 0.14 µM. `COc1ccccc1N1CCN(C(C(=O)NCc2ccc3c(c2)OCO3)c2ccc3c(c2)OCCCO3)CC1` (stereo not given) gave an IC50 of 1.12 µM. `CC(C)(C)c1cc(C(=O)N2CCN(c3ncccc3C(F)(F)F)CC2)n(Cc2ccccc2)n1` was tested, and the IC50 was 0.25 µM. Work on `O=C(O)c1ccc(NC(=O)C2CC(=O)N(Cc3ccc(Cl)cc3)C(=Nc3ccc(Cl)cc3)S2)cc1` (stereo not given) yielded an IC50 of 0.53 µM. `Fc1cc(Cl)ccc1Nc1ccnc2cc(I)ccc12` showed an IC50 of 1.13 µM. For `COc1ccc2nccc([C@@H](O)CN3CCC(NC(=O)/C=C/c4cccc(-c5ccccc5)c4)CC3)c2c1`, the IC50 was 0.25 µM. In the case of `O=C(Nc1ccc(Br)cc1)c1cc(Br)ccc1NS(=O)(=O)c1cc(C(F)(F)F)cc(C(F)(F)F)c1`, the IC50 is reported as 0.88 µM. With `Cc1ccc2cc(NC(=O)CCCCCCCON3C(N)=NC(N)=NC34CCCCC4)ccc2n1` the IC50 was 0.09 µM. With `O=C(/C=C/c1ccc(Cl)c(Cl)c1)NC1CCN(Cc2cccc(O)c2)CC1` the IC50 was 0.88 µM. `Cc1cc(NCCC(=O)Nc2ccccc2)nc(NCC2CCCCC2)n1` was tested, and the IC50 was 0.84 µM. `Cc1cccc2[nH]c(-c3cccc(-c4ccc(C(=O)NCc5nccn5C)cc4)c3)nc12` showed an IC50 of 1.32 µM. `FC(F)(F)COc1ccc2ccccc2c1CNCCCCCCNCc1c(OCC(F)(F)F)ccc2ccccc12` was tested, and the IC50 was 0.35 µM. For `CC(C)C[C@@H](C(=O)N[C@@H](CCCCNC(=O)OCc1ccccc1)C(=O)Nc1nccs1)[C@H](C)N(O)C=O`, the IC50 was 0.19 µM. Molecule `Nc1nc(N)c2c(ccc3nn(Cc4ccccc4)cc32)n1` has an IC50 of 0.21 µM. `Cc1cc(N[C@@H](CC(C)C)C(=O)NCCOc2ccccc2)nc(NCC2CCCCC2)n1` gave an IC50 of 0.97 µM. `FC(F)(F)Oc1ccc(Nc2cc(-c3ccncc3)nc(-c3cccnc3)n2)cc1` showed an IC50 of 0.67 µM. Molecule `N#Cc1cccc(NC(=O)Nc2cccc(-c3ccc(-c4nc5ccc(C(F)(F)F)cc5[nH]4)cc3)c2)c1` has an IC50 of 0.25 µM. `Fc1ccc2nc(-c3cccc(-c4cccc(CNCCc5ccncc5)c4)c3)[nH]c2c1` showed an IC50 of 0.17 µM.
